In patent publication US20040037806A1, “Aldosterone blocker therapy to prevent or treat inflammation-related disorders” (Pharmacia Corporation, priority 2002, published 2004):
Entries after “also recorded” stand apart in the source; their conditions may differ.

Legend:
[1] = Assay A: angiotensin II infusion model, heart histology (hematoxylin&eosin), vascular inflammation and myocardial injury; assay type: in vivo, rat; settings: Wistar rats, 1% NaCl, angiotensin II 25 ng/min sc, 4 weeks, 10/group; eplerenone 100 mpk; aldosterone replacement in adrenalectomized rats
Text: Assay A: In Vivo Angiotensin II Infusion Model
Male Wistar rats (n=50, 10/group; BW=200 g)
Sacrifice by exanguination after 4 weeks. Blood was be collected in dry tubes for determination of serum electrolytes and in EDTA-containing tubes for measurement of aldosterone and corticosterone levels
Hearts were stained with hematoxylin&eosin and have been analyzed for determination of morphologic abnormalities (i.e. necrosis, vascular injury).

[2] = Assay C: aldosterone infusion study, radiotelemetrized arterial blood pressure; assay type: in vivo, rat; settings: 30-day protocol; uninephrectomized Sprague-Dawley rats, aldosterone + salt alone or with eplerenone 100 mg/kg/day
Experimental: The procedure of Assay B was expanded upon in a further study. […] Myocardial tissue from animals in each treatment group was examined after 7, 14, or 30 days of treatment. […] Lesions were preceded by the expression and progressive upregulation of proinflammatory molecules.
Male Sprague-Dawley rats, weighing 230 to 250 g, (Harlan Sprague-Dawley Industries, Indianapolis, Ind.) were housed in a room 12-hours light/12-hours dark daily cycle at an ambient temperature of 22±1° C. (n=96). Animals were allowed one week to adjust after arrival and had free access to TEKLAD 22/5 rodent diet (Harlan TEKLAD, Madison, Wis.) and tap water until the initiation of the experiment.
Potassium chloride supplementation was added to the saline solution in order to prevent the potential hypokalemia associated with aldosterone excess.
Treatment At the time of the surgery, an Alzet 2002 osmotic minipump (Alza Corp., Palo Alto, Calif.) containing either vehicle (9% ethanol/87% propylene glycol/4% dH2O) or 1.0 mg/mL d-aldosterone (Sigma Chemical, St. Louis, Mo.) was inserted subcutaneously at the nape of the neck. […]
Animals to be sacrificed after 7 or 14 days of treatment were uninephrectomized and implanted with an Alzet minipump. […] Animals were monitored daily for signs of distress and infection at the surgical site. […]
Radiotelemetrized arterial blood pressure was calculated with the […]

Structure (SMILES)	Vascular inflammatory lesions in the coronary arteries / heart [1]	Systolic blood pressure (radiotelemetry) [2]
C[C@]12CCC(=O)C=C1CC[C@@H]1[C@@H]2[C@@H](O)C[C@]2(C=O)[C@@H](C(=O)CO)CC[C@@H]12 [aldosterone]	restored the severe coronary and myocardial inflammation and injury	induced severe hypertension; also recorded: induced a progressive increase in blood pressure with time
COC(=O)[C@@H]1CC2=CC(=O)CC[C@]2(C)[C@@]23O[C@@H]2C[C@@]2(C)[C@@H](CC[C@@]24CCC(=O)O4)[C@H]13 [eplerenone]	prevention by eplerenone (epoxymexrenone) of vascular inflammation; also recorded: one of the ten	significantly reduced at days 8-30; also recorded: remained elevated compared to vehicle+salt controls
